Measured values published in patent US4937229A, “Pineapple ketone carbonate derivatives” (priority 1989, dated 1990).
Like-named read-outs stand apart in the source and are kept apart here.

Key:
[1] = 0 min
Protocol: (§1) Solutions containing respectively 10 percent carbonate and ten percent pineapple ketone in toluene are stirred in loosely capped vials at ambient temperature. Samples are taken periodically and the concentration of carbonate or ketone remaining determined by GLC (6'×1/8", 15% Carbowax-20M on 80/100 Chromasorb W, Helium=28 cc/min, 100°-210° at 8°/min). The experiment is repeated using ethanol as solvent.

physchem = settings: toluene
Protocol: as §1

Row | Structure (SMILES) | % Remaining [1] [%] | % Remaining (0 min) [%] | remaining at 21 h (physchem) [%] | remaining at 46 h (physchem) [%] | remaining at 69 h (physchem) [%] | remaining at 149 h (physchem) [%] | remaining at 173 h (physchem) [%] | % Remaining (toluene, 15 h) [%] | % Remaining (toluene, 41 h) [%] | % Remaining (toluene, 116 h) [%] | % Remaining (toluene, 138 h) [%] | remaining at 48 h (physchem) [%] | remaining at 72 h (physchem) [%] | remaining at 172 h (physchem) [%]
1 | CCOC(=O)OC1=C(C)OC(C)C1=O (stereo not drawn) [Example 1, ETHYL 2,5-DIMETHYL-3-OXO-4(2H)-FURYL CARBONATE] | 100 | 100 | 100 | 100 | 100 | 100 | 100 |  |  |  |  |  |  | 
2 | CC1=C(O)C(=O)C(C)O1 (stereo not drawn) [Pineapple ketone, 2,5-dimethyl-4-hydroxy-3(2H)-furanone] | 100 | 100 | 100 |  |  | 8 |  | 24 | 18 | 6 | 4 | 58 | 30 | 9
